PubChem BioAssay (NCI)
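Protocol summary: plate cells (96-well), add compound at 5 concentrations, incubate 48 h, interpolate endpoints linearly. GI50 marks 50% less growth. Definition used: TGI = concentration required for complete inhibition of growth.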

What was measured:
Assay in all cases: NCI tumour cell line growth inhibition, 48 h
786-0 renal = test system: 786-0 renal
A498 renal = test system: A498 renal
A549 NSCLC = test system: A549 NSCLC
ACHN renal = test system: ACHN renal
BT-549 breast = test system: BT-549 breast
CAKI-1 renal = test system: CAKI-1 renal
COLO 205 colon = test system: COLO 205 colon
DU-145 prostate = test system: DU-145 prostate
EKVX NSCLC = test system: EKVX NSCLC
HCC-2998 colon = test system: HCC-2998 colon
HCT-116 colon = test system: HCT-116 colon
HCT-15 colon = test system: HCT-15 colon
HL-60(TB) leukemia = test system: HL-60(TB) leukemia
HOP-62 NSCLC = test system: HOP-62 NSCLC
HOP-92 NSCLC = test system: HOP-92 NSCLC
HS 578T breast = test system: HS 578T breast
HT29 colon = test system: HT29 colon
KM12 colon = test system: KM12 colon
LOX IMVI melanoma = test system: LOX IMVI melanoma
M14 melanoma = test system: M14 melanoma
MALME-3M melanoma = test system: MALME-3M melanoma
MCF7 breast = test system: MCF7 breast
MDA-MB-231 breast = test system: MDA-MB-231 breast
MDA-MB-435 = test system: MDA-MB-435
MOLT-4 leukemia = test system: MOLT-4 leukemia
NCI-H226 lung = test system: NCI-H226 lung
NCI-H23 lung = test system: NCI-H23 lung
NCI-H460 lung = test system: NCI-H460 lung
NCI-H522 lung = test system: NCI-H522 lung
NCI/ADR-RES ovarian = test system: NCI/ADR-RES ovarian
OVCAR-3 ovarian = test system: OVCAR-3 ovarian
OVCAR-4 ovarian = test system: OVCAR-4 ovarian
OVCAR-5 ovarian = test system: OVCAR-5 ovarian
OVCAR-8 ovarian = test system: OVCAR-8 ovarian
PC-3 prostate = test system: PC-3 prostate
RPMI-8226 leukemia = test system: RPMI-8226 leukemia
RXF 393 renal = test system: RXF 393 renal
SF-268 CNS = test system: SF-268 CNS
SF-295 CNS = test system: SF-295 CNS
SF-539 CNS = test system: SF-539 CNS
SK-MEL-2 melanoma = test system: SK-MEL-2 melanoma
SK-MEL-28 melanoma = test system: SK-MEL-28 melanoma
SK-MEL-5 melanoma = test system: SK-MEL-5 melanoma
SK-OV-3 ovarian = test system: SK-OV-3 ovarian
SN12C renal = test system: SN12C renal
SNB-19 CNS = test system: SNB-19 CNS
SNB-75 CNS = test system: SNB-75 CNS
SR leukemia = test system: SR leukemia
SW-620 colon = test system: SW-620 colon
T-47D breast = test system: T-47D breast
TK-10 renal = test system: TK-10 renal
U251 CNS = test system: U251 CNS
UACC-257 melanoma = test system: UACC-257 melanoma
UACC-62 melanoma = test system: UACC-62 melanoma
UO-31 renal = test system: UO-31 renal

## NCCCCCCCCCCn1c2c(c3ccccc3c1=O)C(=O)c1ccccc1-2
786-0 renal
  GI50: 4.8 µM
  TGI: 19.4 µM
A498 renal
  GI50: 13.1 µM
  TGI: 33.7 µM
A549 NSCLC
  GI50: 11.5 µM
  TGI: 37 µM
ACHN renal
  GI50: 6 µM
  TGI: 18.2 µM
BT-549 breast
  GI50: 5.64 µM
  TGI: 19.8 µM
CAKI-1 renal
  GI50: 14.7 µM
  TGI: 32.1 µM
COLO 205 colon
  GI50: 3.58 µM
  TGI: 12.7 µM
DU-145 prostate
  GI50: 3.46 µM
  TGI: 11.2 µM
EKVX NSCLC
  GI50: 17.3 µM
  TGI: 37.8 µM
HCC-2998 colon
  GI50: 6.14 µM
  TGI: 19 µM
HCT-116 colon
  GI50: 2.74 µM
  TGI: 7.66 µM
HCT-15 colon
  GI50: 4.51 µM
  TGI: 16.9 µM
HL-60(TB) leukemia
  GI50: 1.77 µM
  TGI: 3.44 µM
HOP-62 NSCLC
  GI50: 4.84 µM
  TGI: 17.3 µM
HOP-92 NSCLC
  GI50: 2.74 µM
  TGI: 7.49 µM
HS 578T breast
  GI50: 13.6 µM
  TGI: 36.4 µM
HT29 colon
  GI50: 1.89 µM
  TGI: 3.75 µM
KM12 colon
  GI50: 5.85 µM
  TGI: 21.9 µM
LOX IMVI melanoma
  GI50: 2.65 µM
  TGI: 7.06 µM
M14 melanoma
  GI50: 4.72 µM
  TGI: 16 µM
MALME-3M melanoma
  GI50: 13.2 µM
  TGI: 33.9 µM
MCF7 breast
  GI50: 4.67 µM
  TGI: 20.2 µM
MDA-MB-231 breast
  GI50: 5.22 µM
  TGI: 18 µM
MDA-MB-435
  GI50: 11.8 µM
  TGI: 27.9 µM
MOLT-4 leukemia
  GI50: 1.81 µM
  TGI: 3.32 µM
NCI-H226 lung
  GI50: 20.4 µM
  TGI: 47.1 µM
NCI-H23 lung
  GI50: 14.9 µM
  TGI: 32.6 µM
NCI-H460 lung
  GI50: 4.06 µM
  TGI: 18.5 µM
NCI-H522 lung
  GI50: 2.84 µM
  TGI: 8.4 µM
NCI/ADR-RES ovarian
  GI50: 10.9 µM
  TGI: 28.5 µM
OVCAR-3 ovarian
  GI50: 10.8 µM
  TGI: 27.3 µM
OVCAR-4 ovarian
  GI50: 8.7 µM
  TGI: 25.1 µM
OVCAR-5 ovarian
  GI50: 4.52 µM
  TGI: 15.3 µM
OVCAR-8 ovarian
  GI50: 3.34 µM
  TGI: 56.9 µM
PC-3 prostate
  GI50: 2.16 µM
  TGI: 4.54 µM
RPMI-8226 leukemia
  GI50: 2.16 µM
  TGI: 4.47 µM
RXF 393 renal
  GI50: 15.2 µM
  TGI: 36.7 µM
SF-268 CNS
  GI50: 11.7 µM
  TGI: 50.3 µM
SF-295 CNS
  GI50: 6.48 µM
  TGI: 22 µM
SF-539 CNS
  GI50: 1.83 µM
  TGI: 3.52 µM
SK-MEL-2 melanoma
  GI50: 2.04 µM
  TGI: 4.41 µM
SK-MEL-28 melanoma
  GI50: 3.97 µM
  TGI: 14.8 µM
SK-MEL-5 melanoma
  GI50: 8.25 µM
  TGI: 21.3 µM
SK-OV-3 ovarian
  GI50: 18.7 µM
  TGI: 35 µM
SN12C renal
  GI50: 3.32 µM
  TGI: 9.41 µM
SNB-19 CNS
  GI50: 8.31 µM
  TGI: 28 µM
SNB-75 CNS
  GI50: 5.01 µM
  TGI: 17.5 µM
SR leukemia
  GI50: 1.86 µM
  TGI: 3.53 µM
SW-620 colon
  GI50: 2.33 µM
  TGI: 5.5 µM
T-47D breast
  GI50: 11.4 µM
  TGI: 39 µM
TK-10 renal
  GI50: 6.55 µM
  TGI: 20.9 µM
U251 CNS
  GI50: 10.1 µM
  TGI: 24.7 µM
UACC-257 melanoma
  GI50: 21.2 µM
  TGI: 44.8 µM
UACC-62 melanoma
  GI50: 13.7 µM
  TGI: 29.4 µM
UO-31 renal
  GI50: 6.16 µM
  TGI: 18.8 µM
